Measured values published in patent US20110250254A1, “ANTIMICROBIAL COMPOSITIONS AND USES” (priority 2008, published 2011).
Where two headings read alike, the source gives them in different places.

Key:
Assay type in all cases: cell-based
marine bacteria [1] = assay: Coated stainless steel, MPN viable counts of desorbed bacteria; details: 14 days at 20° C., median values vs no coating
Protocol: (§1) Biological testing of coated stainless steel substrates were performed in a static cultures of marine bacteria. The biofilm prevention efficiencies of the coatings were recorded as a) total enumeration of bacteria attached on the steel surfaces and b) most-probable number (MPN) viability testing of attached bacteria. The nature of the thiophenes (expecting to inhibit biofilm generation without being toxic to the bacteria) should account for inhibition of both total counts and viability counts when thiophene-coated surfaces were compared to non-treated controls.
(§2) Three samples of stainless steel substrates were prepared as described above, each of these in triplicate. […]
(§3) At the end of the experimental period (14 days) the steel surfaces were removed from the media and carefully washed in sterile and particle-free (filtered through […] sterile filters) seawater. […] Desorbed concentrations of bacteria were recorded by epifluorescence microscopy and by MPN-counts in MB medium.
(§4) For epifluorescence microscopy 10 ml desorbed samples were stained with 2 μg 3′5-diamino phenylindol (DAPI) and incubated for 5-10 minutes. The stained samples were filtered through 0.2 μm black polycarbonate filters and analysed in a fluorescence microscope at 1250× magnification. […] The plates were incubated at 20° C. for 5 days and positive growth recorded as turbidity in the wells. […]

marine bacteria [2] = assay: Coated stainless steel, total counts of desorbed bacteria by epifluorescence microscopy; details: 14 days at 20° C., median values vs no coating
Protocol: as §1, §2, §3, §4

S. epidermidis [3] = assay: Static biofilm model on coated glass vials; details: incubation time 5 h, coating on glass vial
Protocol: The materials of Example 3 were tested in a static biofilm model as follows.
Triplicate samples of a coating composition were applied to a glass vial in accordance with Table 2 set out below where each vial is given a number. Vials 1 to 12 are each loaded with 13 mg of the indicated material, followed by the addition of 1.0 mL dichloromethane. The dichloromethane was slowly evaporated under atmospheric pressure to leave a coating on the internal walls of the receptacles. Vials 13 to 18 were each loaded by adding 10 mg of the indicated material pre-dissolved in 10 mL dichloromethane. These vials were heated in an oven at 125° C. for 24 hours. To remove any residues of the dichloromethane solvent, all vials were dried at high vacuum (0.5 mmHg) for 2 hours at room temperature.
The biofilm was assessed as described in Example 2.
It is possible in the example of the copolymer of C and D that bacteria are killed in addition to the inhibition of biofilm formation. Similar results were obtained in a static biofilm model where S. epidermis bacteria were incubated over a time period of 5 hours.

V. harveyi [4] = assay: Static biofilm model, safranine staining; details: 4 h incubation
Protocol: (§5) According to the static biofilm model, a given thiophenone 200 μmol/L was dissolved in 500 μl absolute ethanol and applied to wells of a standard 24 well microtiter plate. The ethanol was evaporated from the wells in a laminar air sterile work bench at room temperature so as to leave a coating of the thiophenone in the well. A sample of bacteria was then added to the well and incubated for a given period of time. After incubation, the percentage of bacteria remaining was assessed by safranine staining of the biofilm. Bound safranine was released by acetic acid and optical density was measured in Synergy HT Multi-Detection Microplate Reader and compared to a control.

E. faecalis = assay: Static biofilm model, safranine staining; details: 4 h incubation
Protocol: as §5

S. epidermidis [5] = assay: Static biofilm model, safranine staining; details: 6 h incubation, thiophenone 200 μmol/L coating
Protocol: as §5

Pseudoalteromonas = assay: Static biofilm model, safranine staining; details: 4 h incubation
Protocol: as §5

V. harveyi [6] = assay: Shaking biofilm model (200 rpm), safranine staining
Protocol: as §5
(§6) According to the shaking biofilm model, the microtiter plates were shaken (200 rpm) in a Minitron Incubator Shaker during biofilm formation.

S. epidermidis [7] = assay: as above; details: Staphylococcus epidermidis, S. epidermidis, read-out: Shaking biofilm model % Remaining
Protocol: as §5, §6

[8] = system: Vibrio harveyi BB886 (AI-1 reporter); assay: Bioluminescence assay of AI-1 quorum-sensing; details: compared with the corresponding furanone compound
Protocol: (§7) The effect of (Z)-5-(bromomethylene) thiophen-2(5H)-one on AI-1 and AI-2 quorum-sensing by bacteria was tested in a bioluminescence assay as follows:
(§8) Inhibition of quorum sensing was assessed as the ability of the furanone to reduce bioluminescence induced by cell free bacterial culture supernatant containing either AI-1 or AI-2 signal molecules. Vibrio harveyi BB886 was used as an AI-1 reporter and Vibrio harveyi BB170 was used as reporter of AI-2 communication.

[9] = system: Vibrio harveyi BB170 (AI-2 reporter); assay: Bioluminescence assay of AI-2 quorum-sensing; details: compared with the corresponding furanone compound
Protocol: as §7, §8

| SMILES | Inhibition of viable attached bacteria (marine bacteria [1]) | Inhibition of biofilm attachment (total counts) (marine bacteria [2]) | Static biofilm model % Remaining (S. epidermidis [3]) | Static biofilm model % Remaining (V. harveyi [4]; coating) | Static biofilm model % Remaining (V. harveyi [4]; in medium) | Static biofilm model % Remaining (E. faecalis; coating) | Static biofilm model % Remaining (E. faecalis; in medium) | Static biofilm model % Remaining (S. epidermidis [5]) | Static biofilm model % Remaining (Pseudoalteromonas; coating) | Static biofilm model % Remaining (Pseudoalteromonas; in medium) | Shaking biofilm model % Remaining (V. harveyi [6]; 8 h incubation) | Shaking biofilm model % Remaining (V. harveyi [6]; 18 h incubation) | activity at 200 µM (S. epidermidis [7]; 6 h incubation) | activity at 200 µM (S. epidermidis [7]; 20 h incubation) | Inhibition of AI-1 quorum-sensing [8] | Inhibition of AI-2 quorum-sensing [9] |
| --- | --- | --- | --- | --- | --- | --- | --- | --- | --- | --- | --- | --- | --- | --- | --- | --- |
| CCO[Si](CCCNC(=O)OCC1=C/C(=C/Br)SC1=O)(OCC)OCC [Compound F, (Z)-(5-bromomethylene-2-oxo-2,5-dihydrothiopen-3-yl)methyl 3-(triethoxysilyl)propylcarbamate] | > 99% | ~80% | 45% |  |  |  |  |  |  |  |  |  |  |  |  |  |
| O=C1C=C/C(=C/Br)S1 [Thio101, (Z)-5-(bromomethylene) thiophen-2(5H)-one] |  |  |  | 20% | 9% | 66% | 32% | 28% | 52% | 36% | 54% | 56% | 13% | 15% | considerably more effective | considerably more effective |
